Experimental data: PubChem BioAssay (NCI)
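Cultured in 96-well plates, cells were exposed to test compound for 48 hours across five concentrations. At the TGI there is no net growth.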

Key:
Assay in all cases: NCI anticancer screen, dose series, 48 h
CCRF-CEM leukemia = test system: CCRF-CEM leukemia
DU-145 prostate = test system: DU-145 prostate
HCC-2998 colon = test system: HCC-2998 colon
HS 578T breast = test system: HS 578T breast
MCF7 breast = test system: MCF7 breast
SF-268 CNS = test system: SF-268 CNS
SF-539 CNS = test system: SF-539 CNS
SN12C renal = test system: SN12C renal
SR leukemia = test system: SR leukemia
UACC-62 melanoma = test system: UACC-62 melanoma

SMILES | TGI (CCRF-CEM leukemia) [µM] | TGI (DU-145 prostate) [µM] | TGI (HCC-2998 colon) [µM] | TGI (HS 578T breast) [µM] | TGI (MCF7 breast) [µM] | TGI (SF-268 CNS) [µM] | TGI (SF-539 CNS) [µM] | TGI (SN12C renal) [µM] | TGI (SR leukemia) [µM] | TGI (UACC-62 melanoma) [µM]
CCc1n[nH]c(=O)n1/N=C/c1ccccc1O | > 100 | > 100 | > 100 | 99 | > 100 | > 100 | > 100 | > 100 | > 100 | > 100
CC[C@H](C)[C@H]1NC(=O)[C@@H](NC(=O)[C@@H](CC(C)C)N(C)C(=O)C2CCCN2C(=O)[C@H](C)O)[C@@H](C)OC(=O)[C@H](Cc2ccc(OC)cc2)N(C)C(=O)[C@@H]2CCCN2C(=O)[C@H](CCCCNC(=O)OCc2ccccc2)NC(=O)[C@H](C)C(=O)[C@H](C(C)C)OC(=O)C[C@@H]1O (some centres not stated) | > 25 | > 25 | 9.79 | 8.35 | > 25 | > 25 | > 25 | > 25 | > 25 | > 25
O=C1C[C@H](c2ccccc2)O[C@@H](c2ccccc2)C1 | > 100 | > 100 | > 100 | > 100 | > 100 | > 100 | > 100 | > 100 |  | > 100
O=C1NC(N2CCOCC2)=N/C1=C\c1ccc(Cl)cc1 | > 100 | > 100 | > 100 | > 100 | > 100 | > 100 | > 100 | > 100 | > 100 | > 100
O=c1oc2ccccc2nc1/C=C(\O)c1ccc(Cl)cc1 | > 100 | > 100 | > 100 | > 100 | > 100 | > 100 | > 100 | > 100 | > 100 | > 100
Cc1nc(N)c(N2CCN(C(=O)O)CC2)c(=O)[nH]1 | > 100 | > 100 | > 100 | > 100 | > 100 | > 100 | > 100 | > 100 | > 100 | 
O=c1c2cc(I)ccc2nc(SCc2nncs2)n1Cc1ccccc1 | 70.8 | > 100 | > 100 | 57.8 | > 100 | > 100 | 84.1 | > 100 | > 100 | > 100
COc1ccc(N=Nc2c(C)c(C#N)c(=S)n(C3OC(CO)C(O)C(O)C3O)c2-c2ccccc2)cc1 (configuration not stated) | > 100 | > 100 | > 100 | 55.3 | 84.7 | > 100 | > 100 | > 100 | > 100 | 47.6
COc1ccccc1NC(=S)N/N=C/c1c(C)n(C)n(-c2ccccc2)c1=O | > 100 | > 100 | > 100 | > 100 | > 100 | > 100 | > 100 |  | > 100 | > 100
CN(C)CCCc1cccc2[nH]c3c(c12)CN(C)CC3 | > 100 | > 100 | > 100 | > 100 | > 100 | > 100 | > 100 | > 100 | 74.3 | > 100
CC(=O)C(=[N+]=[N-])C(=O)N1CCOC1=O | > 10 | > 10 | > 10 | > 10 | > 10 | > 10 | > 10 | > 10 | > 10 | > 10
COC(=O)/C(C#N)=C(\Nc1ccccc1)N1CCOCC1 |  | > 100 | > 100 | > 100 | > 100 | > 100 | > 100 | > 100 | > 100 | 
O=C(O)CCCC(=O)Nn1c(Cc2ccc(Cl)cc2)n[nH]c1=O | > 100 | > 100 |  | > 100 | > 100 | > 100 |  | > 100 | > 100 | > 100
COc1ccc(N=N/C(=N/NC(=O)c2ccc(C)cc2)c2ccc(N(CCC#N)CCC#N)cc2OC)cc1 |  | > 100 | > 100 | > 100 | > 100 | > 100 |  | > 100 | > 100 | > 100
CCOC(=O)c1c[nH]c2c(Sc3ccccc3)nccc2c1=O | > 100 | > 100 |  | > 100 | > 100 | > 100 | > 100 | > 100 |  | > 100
O=c1[nH]c(Nc2ccc(Cl)c(C(F)(F)F)c2)nc2nc[nH]c12 | 45.4 | > 100 | 57.4 | > 100 | > 100 | > 100 | > 100 | > 100 |  | > 100
O=c1[nH]c(=O)n(COCc2ccccc2)c2ccsc12 | > 100 | > 100 | > 100 | > 100 | > 100 | > 100 | > 100 | > 100 | > 100 | 
N=C1OC(CN2CCN(c3ccccc3)CC2)CN1C(=S)Nc1ccccc1 (configuration not stated) | > 100 | > 100 | > 100 | > 100 | > 100 | > 100 | > 100 | > 100 | > 100 | > 100
C[N+]1(CCC(=O)c2ccco2)CC2CCC(CC2)C1 (configuration not stated) |  | > 100 |  | > 100 | > 100 | > 100 | > 100 | > 100 | > 100 | > 100
O=C(O[C@@H](/C=C/c1ccccc1)P1(=O)N(Cc2ccccc2)[C@H]2CCCC[C@@H]2N1Cc1ccccc1)c1ccccc1 | 17.9 | > 100 | 18.2 | > 100 | 6.77 | > 100 | 21.3 | 6.74 | 13.8 | 7.47
O=C1CSC(/C=C/c2ccccc2)N1c1nc2cc3sc(N4C(=O)CSC4/C=C/c4ccccc4)nc3cc2s1 (configuration not stated) | > 63.5 | > 100 | > 100 | > 100 | > 100 | > 100 | 9.61 | > 100 | > 83.7 | > 100
Nc1ccc2c(O)cc(=O)[nH]c2n1 |  | > 100 |  | > 100 | > 100 | > 100 | > 100 | > 100 | > 100 | > 100

SMILES | TGI (CCRF-CEM leukemia) [µM] | TGI (DU-145 prostate) [µM] | TGI (HCC-2998 colon) [µM] | TGI (HS 578T breast) [µM] | TGI (MCF7 breast) [µM] | TGI (SF-268 CNS) [µM] | TGI (SF-539 CNS) [µM] | TGI (SN12C renal) [µM] | TGI (SR leukemia) [µM] | TGI (UACC-62 melanoma) [µM]
COc1ccc(C2NC(=S)Nc3c2c(=O)oc2c3ccc3ccccc32)cc1 (configuration not stated) | > 100 | > 100 |  | > 100 | > 100 | > 100 |  | > 100 | > 100 | > 100
CC(C)C1C(=O)N(c2c(F)c(F)c(F)c(F)c2F)C(=S)N1CCS(=O)c1ccccc1 (configuration not stated) | 42.3 | 47.6 | 21.8 | 62.6 | 35.3 | 32.6 | 36.2 | 31 | 16.2 | 34.9
COc1ccc(N=NC(=O)NC(Cc2ccccc2)C(=O)O)cc1 (configuration not stated) | > 100 | > 100 | > 100 | > 100 | > 100 | > 100 | > 100 | > 100 | > 100 | > 100
C#C[C@]1(O)CC[C@H]2[C@@H]3CCC4=C/C(=N/OCCN(C)C)CC[C@]4(C)[C@H]3CC[C@@]21C | 83.1 | > 100 | > 100 | > 100 | > 100 | > 100 |  | > 100 | 67.5 | > 100
CCCCCCCCCCCCCCCCCc1cccc(OCOCCOC)c1C(=O)O | > 77.5 | 33.2 | 36 | 42.6 | 43.2 | 34.5 | 30.1 | 46.6 | 50 | 32.4
CC(=O)O[C@H]1C(=O)[C@@]2(C)[C@H]([C@H](OC(=O)c3cccc([N+](=O)[O-])c3)[C@]3(O)C[C@H](OC(=O)[C@H](O)[C@@H](NC(=O)c4ccccc4)c4ccccc4)C(C)=C1C3(C)C)[C@]1(OC(C)=O)CO[C@@H]1C[C@@H]2O |  | > 25 | > 25 | 0.00761 | > 17.1 | > 25 | 0.00254 | > 25 | 0.113 | > 25
CC(=O)Nc1ccc(NCC(=O)Nn2cnc3ccc(S(=O)(=O)Nc4ccc(NC(C)=O)cc4)cc3c2=O)cc1 | > 100 | > 100 | > 100 | > 100 | > 100 | > 100 | > 100 | > 100 | > 100 | > 100
CC(O)(Cc1ccccc1C#N)Cc1ccccc1C#N |  | > 100 | > 100 | > 100 | > 100 | > 100 | > 100 | > 100 | > 100 | > 100
CC(C)(O)/C=C\P(=O)(O)O |  | > 100 | > 100 | > 100 | > 100 | > 100 | > 100 | > 100 | > 100 | > 100
NC1=CN(CCCO)C2=N/C(=C\c3ccccc3)C(=O)N12 | > 100 | > 100 | > 100 | > 100 | > 100 | > 100 | > 100 | > 100 |  | > 100
C=CCn1c(-c2ccc([N+](=O)[O-])cc2)cs/c1=N\C(P(=O)(O)O)P(=O)(O)O | > 100 | > 100 | > 100 | > 100 | > 100 | > 100 | > 100 |  | > 100 | > 100
O=c1[nH]c2nnc(COc3ccc(Cl)cc3Cl)n2nc1Cc1ccccc1 | > 100 | > 100 |  | > 100 | > 100 | > 100 | 39.8 | > 100 | > 100 | 
CC(=O)C1=C(C)N2C(=NC3=C(CCc4ccccc43)C2c2ccc(F)cc2)S1 (configuration not stated) | > 100 | > 100 | > 100 | > 100 | > 100 | > 100 | > 100 | > 100 |  | > 100
O=C1/C(=C\Oc2ccc(F)cc2)N2CCC1CC2 | > 100 | 36.7 |  | > 100 | > 100 | > 100 | > 100 | > 100 | 63.1 | > 100
O=C(NC1(c2cc3ccccc3s2)CCCCC1)C1CCC1 | > 100 | > 100 | > 100 | 83.7 | > 100 |  | > 100 | > 100 | > 100 | > 100
CN(C)CCCN1C(=S)N(CCCN(C)C)c2c3ccccc3nc3c([N+](=O)[O-])ccc1c23 | > 100 | 19.8 | 14.5 | 41 | 19.4 | 32.5 | 23 | 18.1 |  | 24.3
c1ccc(-c2nnn3c2NC2=C(CCCC2)C3c2ccccc2)cc1 (configuration not stated) | 31.1 | 33.3 |  | 81.7 | 51.9 | 48.9 | 35.8 | 51.1 | 31.1 | 33.7
Oc1ccc(O)c(CNc2ccc(C(O)C(F)(F)F)cc2)c1 (configuration not stated) | 33.5 | 28.5 |  | > 100 | 69.2 | 66 | 21.1 | 47.5 | 83.6 | 35.8
CC1=CC(=O)CC(C)(C)C1/C=C/C(C)=C/C=C/C(C)=C/C=C/C=C(C)/C=C/C=C(C)/C=C/C1C(C)=CC(=O)CC1(C)C (configuration not stated) | > 100 | > 100 | > 100 | > 100 | > 100 | > 100 | > 100 |  | > 100 | 
CC(C)=CCC[C@@H](C)/C=C/C=C(\C)C(=O)CC[C@@H]1CC[N@+]2(C)CCCC[C@H]12 |  | > 100 | > 100 | > 100 | > 100 | > 100 | > 100 | > 100 | > 100 | > 100
CN(C)c1ccc(C=Nc2ccc(-c3nc4ccccc4[nH]3)cc2)cc1 | > 100 | > 100 |  | > 100 | > 100 | > 100 | > 100 | > 100 | 65.1 | 
